# Laboratory results: patent US20070104645A1, “Chelate based scaffolds in tumor targeting” (priority 2003, published 2007)
# Square brackets hold non-standard residues; d marks the D form. Peptide text beside a SMILES is read from it. Ava = NCCCCC(=O)O
# Columns and labels:
# ανβ3 receptor = target: T1, ανβ3 receptor (Homo sapiens, UniProt P05106+P06756); test: whole cell adhesion inhibition assay (HBEC cells on vitronectin-coated plates); assay type: cell-based; settings: for inhibition of HBEC adhesion (in words): 100 uM
# T1 construct: endothelial cells known to express ανβ3 receptors on their surface (HBEC cells); endogenous in cells; host or cells: HBEC endothelial cells
# Description: Biological Assay Studies: A biological whole cell adhesion inhibition assay was developed to evaluate the synthesized macrocyclic RGD mimetics. This assay uses endothelial cells known to express ανβ3 receptors on their surface (HBEC cells) and also known to require vitronectin binding at the ανβ3 receptor to initiate adhesion processes. Vitronectin was coated on microtiter plates and exposed to cell suspensions. As the target molecules prepared herein compete with vitronectin for binding at the ανβ3 they will interfere with the adhesion process. This can be used to quantify/rank their ability to do so. The amount of ανβ3 mediated adhesion was determined by cell staining with subsequent quantitation by UV absorption proportional to the amount of stain present. This test procedure has been optimized with regard to vitronectin quantities, cell numbers, volumes, times, and the cell staining process.
# Leydig cell tumor = settings: mouse-based Leydig cell tumor model; cited from earlier work
# T1 sequence (P06756 31-889 limits assumed): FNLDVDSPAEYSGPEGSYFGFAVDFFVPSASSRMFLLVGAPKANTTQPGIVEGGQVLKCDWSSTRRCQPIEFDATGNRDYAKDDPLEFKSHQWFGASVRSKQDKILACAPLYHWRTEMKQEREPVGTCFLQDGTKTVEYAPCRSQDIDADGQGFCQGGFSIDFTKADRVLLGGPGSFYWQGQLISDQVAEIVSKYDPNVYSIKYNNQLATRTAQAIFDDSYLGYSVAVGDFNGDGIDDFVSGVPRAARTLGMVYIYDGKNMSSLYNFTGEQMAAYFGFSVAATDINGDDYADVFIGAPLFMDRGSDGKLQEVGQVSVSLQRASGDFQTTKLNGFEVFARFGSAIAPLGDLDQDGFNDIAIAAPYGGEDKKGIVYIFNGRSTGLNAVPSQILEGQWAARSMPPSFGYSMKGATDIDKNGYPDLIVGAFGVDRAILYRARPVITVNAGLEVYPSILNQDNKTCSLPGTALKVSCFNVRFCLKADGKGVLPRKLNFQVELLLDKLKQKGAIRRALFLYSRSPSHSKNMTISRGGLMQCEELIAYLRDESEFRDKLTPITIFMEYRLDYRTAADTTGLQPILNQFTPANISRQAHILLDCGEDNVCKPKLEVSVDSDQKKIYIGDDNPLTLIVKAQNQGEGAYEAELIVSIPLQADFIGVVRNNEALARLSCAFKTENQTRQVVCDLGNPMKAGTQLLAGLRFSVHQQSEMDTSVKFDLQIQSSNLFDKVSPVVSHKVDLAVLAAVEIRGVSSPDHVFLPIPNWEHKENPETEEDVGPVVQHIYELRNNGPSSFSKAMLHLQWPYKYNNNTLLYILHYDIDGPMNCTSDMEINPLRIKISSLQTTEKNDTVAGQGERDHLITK
# T1 sequence (P06756 891-1048 partner limits assumed): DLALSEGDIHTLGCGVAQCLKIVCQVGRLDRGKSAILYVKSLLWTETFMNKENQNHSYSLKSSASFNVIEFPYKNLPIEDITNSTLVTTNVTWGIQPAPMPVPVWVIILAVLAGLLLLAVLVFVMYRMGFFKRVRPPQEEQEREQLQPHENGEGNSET
# T1 sequence (P05106 27-788): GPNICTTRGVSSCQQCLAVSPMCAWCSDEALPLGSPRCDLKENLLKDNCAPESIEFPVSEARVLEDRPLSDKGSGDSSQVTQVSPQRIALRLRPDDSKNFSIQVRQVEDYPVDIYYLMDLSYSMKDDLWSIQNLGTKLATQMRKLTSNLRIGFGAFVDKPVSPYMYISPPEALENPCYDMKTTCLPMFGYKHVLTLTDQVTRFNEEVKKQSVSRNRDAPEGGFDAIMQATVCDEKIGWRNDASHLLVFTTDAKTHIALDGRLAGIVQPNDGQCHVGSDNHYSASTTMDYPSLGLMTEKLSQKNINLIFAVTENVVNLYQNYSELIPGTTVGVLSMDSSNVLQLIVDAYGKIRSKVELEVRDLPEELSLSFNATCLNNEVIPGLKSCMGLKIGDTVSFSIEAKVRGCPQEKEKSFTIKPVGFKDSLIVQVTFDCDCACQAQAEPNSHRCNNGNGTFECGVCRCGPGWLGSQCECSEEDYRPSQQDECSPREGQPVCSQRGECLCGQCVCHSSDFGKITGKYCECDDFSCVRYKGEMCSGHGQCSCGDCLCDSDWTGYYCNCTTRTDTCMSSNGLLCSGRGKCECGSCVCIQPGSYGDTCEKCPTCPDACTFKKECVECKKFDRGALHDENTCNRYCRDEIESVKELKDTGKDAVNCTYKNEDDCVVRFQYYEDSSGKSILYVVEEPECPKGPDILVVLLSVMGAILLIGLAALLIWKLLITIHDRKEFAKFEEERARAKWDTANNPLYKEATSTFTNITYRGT
Compound,inhibition of HBEC adhesion (in words) (ανβ3 receptor),decrease in amount of adhesion (ανβ3 receptor; 20 uMolar) [%],reduction in tumor growth (Leydig cell tumor)
[H]/N=C(/N)NCCCC(N)C(=O)NCC(=O)NC(CC(=O)O)C(=O)NC(CO)C(=O)O (stereo not shown) [RGDS],decreased it completely,69,
NC(N)=Nc1cccc(C(=O)NCC(=O)NC(CC(=O)O)c2cc(Cl)cc(Cl)c2)c1 (stereo not shown) [SC-68448],,,up to 80%
NCCCCC(=O)NCC(=O)NC(CC(=O)O)C(=O)NC(CO)C(=O)O (stereo not shown) [lot A015-82PBS] (H-[Ava]GDS-OH; configuration not given here),completely inactive,,
